Measured values as given in patent US20040106545A1, “Compounds and methods for modulating cell adhesion” (priority 1996, published 2004).
Entries after “also recorded” stand apart in the source; their conditions may differ. Read-outs that look alike come from different tables or passages of the source. Positions of bridges follow the written chain, without caps; N, C: chain ends. Residues, ends and D or L forms follow the SMILES beside them.

Key:
[1] = test system: Bovine pulmonary artery endothelial cells; assay: Disruption of bovine endothelial cell adhesion; assay type: cell-based; conditions: 500 μg/ml, 30 minutes
Protocol: For use within one such assay, bovine pulmonary artery endothelial cells may be harvested by sterile ablation and digestion in 0.1% collagenase (type II; Worthington Enzymes, Freehold, N.J.). Cells may be maintained in Dulbecco's minimum essential medium supplemented with 10% fetal calf serum and 1% antibiotic-antimycotic at 37° C. in 7% CO2 in air. Cultures may be passaged weekly in trypsin-EDTA and seeded onto tissue culture plastic at 20,000 cells/cm^2. Endothelial cultures may be used at 1 week in culture, which is approximately 3 days after culture confluency is established. The cells may be seeded onto coverslips and treated (e.g., for 30 minutes) with modulating agent or a control compound at, for example, 500 μg/ml and then fixed with 1% paraformaldehyde. As noted above, disruption of cell adhesion may be determined visually within 24 hours, by observing retraction of the cells from one another. This assay evaluates the effect of a modulating agent on N-cadherin mediated cell adhesion.
Bovine pulmonary artery endothelial cells were harvested by sterile ablation and digestion in 0.1% collagenase (type II; Worthington Enzymes, Freehold, N.J.). Cells were maintained in Dulbecco's minimum essential medium (Clonetics, San Diego, Calif.) supplemented with 10% fetal calf serum (Atlantic Biologicals, Nor cross, Ga.) and 1% antibiotic-antimycotic at 37° C. in 7% CO2 in air. Cultures were passaged weekly in trypsin-EDTA (Gibco, Grand Island, N.Y.) and seeded onto tissue culture plastic at 20,000 cells/cm^2 for all experiments. Endothelial cultures were used at 1 week in culture, which is approximately 3 days after culture confluency was established. The cells used in all protocols were between 4th passage and 10th passage. The cells were seeded onto coverslips and treated 30 minutes with N—Ac-CHAVC-NH2 (SEQ ID NO:10) or N—Ac-CHGVC-NH2 (SEQ ID NO:11) at 500 μg/ml and then fixed with 1% paraformaldehyde.

SKOV3 cells = assay: Disruption of human ovarian cancer cell (SKOV3) adhesion; assay type: cell-based; conditions: for activity in SKOV3 cells (cell adhesion): 0.01-1 mg/mL; for disruption of SKOV3 cell adhesion: 1 mg/mL media, within 24 hours
Protocol: FIGS. 37A and 37B are photographs illustrating the effect of N—Ac-CHAVC-Y—NH2 (SEQ ID NO:84) on SKOV3 cell adhesion. A confluent culture of SKOV3 cells was briefly trypsinated and counted using a hemacytometer. The cells were diluted to 5×10^3/mL in MEM (Gibco BRL) containing 10% FBS (Wisent). A 10 mg/mL solution of peptide was added directly to the media at a concentration of 1 mg/mL. The plate was incubated in a humidified chamber at 37° C. for 24 hours in 5% CO2. Morphological changes were evaluated after 24 hours.
The human ovarian cancer cell line SKOV3 (ATCC #HTB-77) expresses N-cadherin. SKOV3 cells were cultured in a modified MEM-based media containing 10% FCS. Cells were grown in T-250 culture flasks and maintained by periodic subculturing. Cyclic peptides were tested on cells grown in individual wells of 96-well culture dishes (surface area of each well was 0.32 cm^2). Cells were harvested from flasks and seeded at a density of 50,000 cells per well in 0.1 mL media containing the cyclic peptides at concentrations of 1, 0.1, or 0.01 mg/mL, or in the absence of cyclic peptide. Media control wells were also established. Cultures were evaluated periodically by microscopic examination under both bright field and phase contrast conditions. Cultures were maintained for 48 hours.

[2] = test system: chick embryonic chorioallantoic membranes; assay: Chick chorioallantoic membrane angiogenesis assay; assay type: in vivo; conditions: for Percent Inhibition of Angiogenesis: 24 hours; for inhibition of angiogenesis (in words): 3, 17 and 33 μg/mesh
Protocol: Another cell adhesion assay evaluates the ability of a modulating agent to block angiogenesis (the growth of blood vessels from pre-existing blood vessels). This ability may be assayed using the chick chorioallantoic membrane assay described by Iruela-Arispe et al., Molecular Biology of the Cell 6:327-343, 1995. Briefly, a modulating agent may be embedded in a mesh composed of vitrogen at one or more concentrations (e.g., ranging from about 1 to 100 μg/mesh). The mesh(es) may then be applied to chick chorioallantoic membranes. After 24 hours, the effect of the peptide may be determined using computer assisted morphometric analysis. A modulating agent should inhibit angiogenesis by at least 25% at a concentration of 33 μg/mesh.
The chick chorioallantoic membrane assay was used to assess the effects of cyclic peptides on angiogenesis (Iruela-Arispe et al., Molecular Biology of the Cell 6:327-343, 1995). Cyclic peptides were embedded in a mesh composed of vitrogen at concentrations of 3, 17, and 33 μg/mesh. The meshes were then applied to 12-day-old chick embryonic chorioallantoic membranes. After 24 hours, the effects of the peptides on angiogenesis were assessed by computer assisted morphometric analysis.

MDA-MB231 = assay: Cytotoxicity, MTT assay, MDA-MB231; assay type: cell-based, human
Summary of the method: (§1)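 Peptide concentrations reached 100 μM. Both an MTT cytotoxicity read-out and ^3H-thymidine incorporation for proliferation were used.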

PC-3 = assay: Cytotoxicity, MTT assay, PC-3; assay type: cell-based, human
Summary of the method: as §1

[3] = 3 μg/mesh, absence (−) of 0.01 mM VEGF
[4] = 3 μg/mesh, presence (+) of 0.01 mM VEGF
[5] = 17 μg/mesh, absence (−) of 0.01 mM VEGF
[6] = 17 μg/mesh, presence (+) of 0.01 mM VEGF
[7] = 33 μg/mesh, absence (−) of 0.01 mM VEGF
[8] = 33 μg/mesh, presence (+) of 0.01 mM VEGF

## CC[C@H](C)[C@@H]1NC(=O)[C@H](CC(=O)O)NC(=O)[C@H](C(C)C)NC(=O)[C@H](C)NC(=O)[C@H](Cc2c[nH]cn2)NC(=O)[C@H](C)NC(=O)[C@@H](NC(C)=O)CSSC[C@@H](C(N)=O)NC1=O (Ac-CAHAVDIC-NH2; disulfide 1-8)
[1]; listed as N—Ac-CAHAVDIC-NH2
  effect on endothelial cell monolayer / morphology: neither of the cyclic peptides show activity; also recorded: had no effect on endothelial cell morphology
SKOV3 cells
  activity in SKOV3 cells (cell adhesion): inactive
[2]; [3]
  Percent Inhibition of Angiogenesis: −1%^
[2]; [4]
  Percent Inhibition of Angiogenesis: 21%
[2]; [5]
  Percent Inhibition of Angiogenesis: 15%
[2]; [6]
  Percent Inhibition of Angiogenesis: 37%
[2]; [7]
  Percent Inhibition of Angiogenesis: 33%
[2]; [8]
  Percent Inhibition of Angiogenesis: 49%
[2]
  inhibition of angiogenesis (in words): inhibited angiogenesis significantly
MDA-MB231
  IC50: > 100 µM
PC-3
  IC50: > 100 µM

## CC(=O)N[C@H]1CSSC[C@@H](C(N)=O)NC(=O)[C@H](CC(=O)O)NC(=O)[C@H](C(C)C)NC(=O)[C@H](C)NC(=O)[C@H](Cc2c[nH]cn2)NC(=O)[C@H](C)NC1=O [N—Ac—CAHAVDC—NH2, N-Ac-Cys-Ala-His-Ala-Val-Asp-Cys-NH2] (Ac-CAHAVDC-NH2; disulfide 1-7)
[1]
  effect on endothelial cell monolayer / morphology: endothelial cells retracted from one another; also recorded: had a slight effect
SKOV3 cells
  activity in SKOV3 cells (cell adhesion): inactive
[2]; [3]
  Percent Inhibition of Angiogenesis: 21%
[2]; [4]
  Percent Inhibition of Angiogenesis: 59%
[2]; [5]
  Percent Inhibition of Angiogenesis: 27%
[2]; [6]
  Percent Inhibition of Angiogenesis: 72%
[2]; [7]
  Percent Inhibition of Angiogenesis: 31%
[2]; [8]
  Percent Inhibition of Angiogenesis: 79%
[2]
  inhibition of angiogenesis (in words): inhibited angiogenesis significantly
MDA-MB231
  IC50: > 100 µM
PC-3
  IC50: > 100 µM

## CC(=O)N[C@H]1CSSC[C@@H](C(N)=O)NC(=O)[C@H](C(C)C)NC(=O)[C@H](C)NC(=O)[C@H](Cc2c[nH]cn2)NC1=O [N—Ac—CHAVC—NH2, N-Ac-Cys-His-Ala-Val-Cys-NH2]
[1]
  effect on endothelial cell monolayer / morphology: endothelial cells retracted from one another; also recorded: disrupted the endothelial cell monolayer
SKOV3 cells
  disruption of SKOV3 cell adhesion: disrupted SKOV3 cell adhesion
SKOV3 cells; 0.5 or 1 mg/ml, 24-48 hours (figure legends)
  SKOV3 cell morphology: SKOV3 cells retract from one another and round-up
[2]; [3]
  Percent Inhibition of Angiogenesis: 12%
[2]; [4]
  Percent Inhibition of Angiogenesis: 46%
[2]; [5]
  Percent Inhibition of Angiogenesis: 22%
[2]; [6]
  Percent Inhibition of Angiogenesis: 51%
[2]; [7]
  Percent Inhibition of Angiogenesis: 28%
[2]; [8]
  Percent Inhibition of Angiogenesis: 51%
MDA-MB231; human
  IC50: > 100 µM
PC-3; human
  IC50: > 100 µM

## CC(=O)N[C@H]1CSSC[C@@H](C(N)=O)NC(=O)[C@H](C(C)C)NC(=O)CNC(=O)[C@H](Cc2c[nH]cn2)NC1=O [N—Ac—CHGVC—NH2, reference compound]
[1]
  effect on endothelial cell monolayer / morphology: had no affect on the cells
SKOV3 cells
  disruption of SKOV3 cell adhesion: had no affect on cell adhesion
MDA-MB231
  IC50: > 100 µM
PC-3
  IC50: > 100 µM
